Experimental data as given in patent publication US4118424A, “Biodegradable insecticides” (priority 1976, dated 1978).
Values after ≈ are worked out from the molar mass of the structure shown.

Experiments:
[1] = system: Musca domestica (NAIDM strain); experiment: Insect toxicity, Musca domestica NAIDM strain; type: in vivo; conditions: for LD50: Musca domestica, without PB; for Musca domestica NAIDM (w/PB) LD50: with PB
[2] = system: Musca domestica Rsp strain; experiment: Insect toxicity, Musca domestica Rsp strain, DDT-resistant; type: in vivo; conditions: for LD50: Musca domestica, without PB; for Musca domestica Rsp strain w/PB LD50: with PB
[3] = system: Anopheles albimanus; experiment: Persistence on plywood surfaces of test huts, Anopheles albimanus; type: in vivo; conditions: adult mosquitoes
Method: (§1) The persistence of some of the compounds of the present invention was evaluated and compared with that of ethoxychlor. In these tests, the compounds were applied to the plywood surfaces of test huts and the mortalities of adult mosquitoes contained in the huts were measured to determine the number of weeks that 50% mortality continued to occur.

[4] = system: Phormia regina; experiment: Insect toxicity, Phormia regina; type: in vivo
[5] = system: mice; experiment: Mouse toxicity, LD50; type: in vivo; conditions: versus ethoxychlor
[6] = Mouse toxicity, LD50; type: in vivo, mice; conditions: in vivo
[7] = system: Anopheles albimanus larvae; experiment: Insect toxicity, Anopheles albimanus larvae; type: in vivo
[8] = system: Culex fatigans; experiment: Persistence on plywood surfaces of test huts, Culex fatigans; type: in vivo; conditions: adult mosquitoes
Method: as §1

[9] = system: Culex fatigans larvae; experiment: Insect toxicity, Culex fatigans larvae; type: in vivo; conditions: Culex quinquefasciatus
[10] = system: Anopheles albimanus adults; experiment: Insect toxicity, Anopheles albimanus adults; type: in vivo
[11] = system: insects (flies and mosquitoes); experiment: Insecticidal activity, general statement; type: in vivo; conditions: versus ethoxychlor
Description: Metabolic studies involving insects, mice, and fish and a model ecosystem (such as described in U.S. Pat. No. 3,787,505) and insecticidal activity studies generally involving flies and mosquitoes have shown that both the symmetrical and the asymmetrical compounds of the present invention are effective. Thus, the new compounds can be represented by the general formula: [drawing 3] where R1 is H or Cl and R2 is CH3 or Cl, X and X^1 are the same or different and each is selected from the group consisting of C1 to C3 alkyl groups and C1 to C4 alkoxy groups.

[12] = system: green sunfish (Lepomis cyanellus); experiment: Green sunfish toxicity over a period of time; type: in vivo; conditions: initial concentration 0.1 ppm
Description: The compounds of Example III, V, XI, XIV and XXI were further tested and compared with ethoxychlor to determine fish toxicities over a period of time. In these tests, green sunfish (Lepomis cyanellus) were subject to an initial concentration dosage of 0.1 ppm and the number of days that 100 percent mortalities occurred was observed.

[13] = system: Culex fatigans adults; experiment: Insect toxicity, Culex fatigans adults; type: in vivo

Compound	LD50 [1]	Musca domestica NAIDM (w/PB) LD50 [1]	LD50 [2]	Musca domestica Rsp strain w/PB LD50 [2]	Anopheles albimanus, P50 (number of weeks that at least 50% mortality occurred) [3]	LD50 [4]	safety to mice relative to ethoxychlor [5]	LD50 [6]	LC50 [7]	Culex fatigans, P50 (number of weeks that at least 50% mortality occurred) [8]	LC50 [9]	Anopheles albimanus adults LC50 [10]	insecticidal activity relative to ethoxychlor [11]	Number of days 100% mortality [12]	Culex fatigans adults-LC50 [13]
CCOc1ccc(C(c2ccc(C)cc2)C(C)Cl)cc1 (stereo not drawn) [Example III]	39 mg/kg	10 µg/g	95 mg/kg	14 µg/g	> 6 weeks	6.75 mg/kg	at least five times safer to mice than is ethoxychlor	≥ 1000 mg/kg	0.09 µg/mL (≈ 0.312 µM)	> 8 weeks	0.08 µg/mL (≈ 0.277 µM)	1.1 ug/cm^2	at least generally comparable to ethoxychlor	0 days	10 ug/cm^2
Cc1ccc(C(c2ccc(C)cc2)C(C)Cl)cc1 (stereo not drawn) [Example II]	> 500 mg/kg	24.5 µg/g	> 500 mg/kg	140 µg/g		> 250 mg/kg			> 1 µg/mL		0.22 µg/mL (≈ 0.85 µM)	6.9 ug/cm^2			9.7 ug/cm^2
CCOc1ccc(C(c2ccc(OCC)cc2)C(C)(Cl)Cl)cc1 [Example XIX]	17.5 mg/kg	7 µg/g	90 mg/kg	23.5 µg/g	> 20 weeks	24 mg/kg		< 300 mg/kg	0.041 µg/mL (≈ 0.116 µM)	40 weeks	0.094 µg/mL (≈ 0.266 µM)	49 ug/cm^2			> 160 ug/cm^2
CCOc1ccc(C(c2ccc(OCC)cc2)C(C)C)cc1 [Example XI]	21.5 mg/kg	3.5 µg/g	38 mg/kg	12.5 µg/g	> 44 weeks	14.5 mg/kg	at least five times safer to mice than is ethoxychlor	≥ 1000 mg/kg	0.028 µg/mL (≈ 0.0938 µM)	40 weeks	0.08 µg/mL (≈ 0.268 µM)	4.5 ug/cm^2	at least generally comparable to ethoxychlor	> 35 days	14.3 ug/cm^2
CCOc1ccc(C(c2ccc(OC)cc2)C(C)C)cc1 (stereo not drawn) [Example X]	65 mg/kg	12 µg/g	110 mg/kg	17.5 µg/g		28.5 mg/kg			0.17 µg/mL (≈ 0.598 µM)		0.13 µg/mL (≈ 0.457 µM)	6.3 ug/cm^2			16.5 ug/cm^2
CCOc1ccc(C(c2ccc(OC)cc2)C(C)Cl)cc1 (stereo not drawn) [IV]	47 mg/kg	4.7 µg/g	100 mg/kg	4.8 µg/g		12 mg/kg			0.15 µg/mL (≈ 0.492 µM)		0.15 µg/mL (≈ 0.492 µM)	27 ug/cm^2			> 160 ug/cm^2
CCCc1ccc(C(c2ccc(CCC)cc2)C(C)Cl)cc1 (stereo not drawn) [IX]	55 mg/kg	45 µg/g	120 mg/kg	90 µg/g		> 250 mg/kg			0.068 µg/mL (≈ 0.216 µM)		0.145 µg/mL (≈ 0.46 µM)	17 ug/cm^2			> 160 ug/cm^2
CCCc1ccc(C(c2ccc(C)cc2)C(C)Cl)cc1 (stereo not drawn) [VIII]	65 mg/kg	29 µg/g	155 mg/kg	85 µg/g		97.5 mg/kg			0.18 µg/mL (≈ 0.628 µM)		0.18 µg/mL (≈ 0.628 µM)	7.2 ug/cm^2			12 ug/cm^2
CCCOc1ccc(C(c2ccc(OCCC)cc2)C(C)Cl)cc1 (stereo not drawn) [VII]	28 mg/kg	10 µg/g	85 mg/kg	42 µg/g		42.5 mg/kg			0.16 µg/mL (≈ 0.461 µM)		0.12 µg/mL (≈ 0.346 µM)	> 160 ug/cm^2			> 160 ug/cm^2
CCCOc1ccc(C(c2ccc(OCC)cc2)C(C)Cl)cc1 (stereo not drawn) [VI]	15.5 mg/kg	3.2 µg/g	25 mg/kg	5.5 µg/g		62.5 mg/kg			0.075 µg/mL (≈ 0.225 µM)		0.05 µg/mL (≈ 0.15 µM)	14.5 ug/cm^2			> 160 ug/cm^2
CCOc1ccc(C(c2ccc(OCC)cc2)C(C)Cl)cc1 (stereo not drawn) [V]	9.5 mg/kg	2 µg/g	18 mg/kg	4.9 µg/g	> 80 weeks	4.62 mg/kg	at least five times safer to mice than is ethoxychlor	≥ 1000 mg/kg	0.047 µg/mL (≈ 0.147 µM)	> 70 weeks	0.054 µg/mL (≈ 0.169 µM)	7.9 ug/cm^2	at least generally comparable to ethoxychlor	4 days	56 ug/cm^2
CCCOc1ccc(C(c2ccc(OCCC)cc2)C(C)C)cc1 [XIII]	100 mg/kg	21.5 µg/g	185 mg/kg			200 mg/kg			0.25 µg/mL (≈ 0.766 µM)		0.3 µg/mL (≈ 0.919 µM)	> 160 ug/cm^2			> 160 ug/cm^2
CCCOc1ccc(C(c2ccc(OCC)cc2)C(C)C)cc1 (stereo not drawn) [XII]	21 mg/kg	6.5 µg/g	42 mg/kg	22.5 µg/g		60 mg/kg	at least five times safer to mice than is ethoxychlor	≥ 1000 mg/kg	0.056 µg/mL (≈ 0.179 µM)		0.39 µg/mL (≈ 1.25 µM)	35 ug/cm^2	at least generally comparable to ethoxychlor		> 160 ug/cm^2
COc1ccc(C(c2ccc(OC)cc2)C(C)(Cl)Cl)cc1 [XVIII]	65 mg/kg	8 µg/g	155 mg/kg	9.5 µg/g		13.5 mg/kg			0.18 µg/mL (≈ 0.553 µM)		0.061 µg/mL (≈ 0.188 µM)	1.63 ug/cm^2			> 160 ug/cm^2
Cc1ccc(C(c2ccc(C)cc2)C(C)(Cl)Cl)cc1 [XVII]	145 mg/kg	18 µg/g	270 mg/kg	7.0 µg/g		8 mg/kg			0.13 µg/mL (≈ 0.443 µM)		0.2 µg/mL (≈ 0.682 µM)	5 ug/cm^2			8.0 ug/cm^2
CCCCOc1ccc(C(c2ccc(C)cc2)C(C)C)cc1 (stereo not drawn) [XVI]	> 500 mg/kg	240 µg/g	> 500 mg/kg	> 500 µg/g		> 250 mg/kg			0.19 µg/mL (≈ 0.641 µM)		> 1 µg/mL	> 160 ug/cm^2			> 160 ug/cm^2
CCCOc1ccc(C(c2ccc(C)cc2)C(C)C)cc1 (stereo not drawn) [XV]	175 mg/kg	100 µg/g	370 mg/kg	220 µg/g		250 mg/kg			0.42 µg/mL (≈ 1.49 µM)		0.55 µg/mL (≈ 1.95 µM)	29 ug/cm^2			> 160 ug/cm^2
CCOc1ccc(C(c2ccc(OCC)cc2)C(C)(C)Cl)cc1 [XXI]	115 mg/kg	12 µg/g	180 mg/kg	25.5 µg/g		> 250 mg/kg	at least five times safer to mice than is ethoxychlor	≥ 1000 mg/kg	> 1 µg/mL		> 1 µg/mL	> 160 ug/cm^2	at least generally comparable to ethoxychlor	0 days	> 160 ug/cm^2
COc1ccc(C(c2ccc(OC)cc2)C(C)(C)Cl)cc1 [XX]	> 500 mg/kg	12 µg/g	> 500 mg/kg	26 µg/g		75 mg/kg			> 1 µg/mL		> 1 µg/mL	16 ug/cm^2			> 160 ug/cm^2
CCOc1ccc(C(c2ccc(OCC)cc2)C(Cl)(Cl)Cl)cc1 [ethoxychlor, reference compound]					> 44 weeks					8 weeks				21 days	
